Results on seven compounds are retold here after BindingDB's records for patent US20250243194 (Adorx Therapeutics, 2025).

The term Ki denotes the dissociation constant of the complex between target and ligand, obtained from inhibition or displacement.

Assay in all cases: Adenosine Receptor Time-Resolved Fluorescence Resonance Energy Transfer (TRFRET) Binding Assay
(Time-resolved FRET reads energy transfer from a long-lived donor to a nearby acceptor.)

In one assay the target is T1, Adenosine receptor A2b (Homo sapiens, UniProt P29275).
T1 sequence (P29275 whole entry): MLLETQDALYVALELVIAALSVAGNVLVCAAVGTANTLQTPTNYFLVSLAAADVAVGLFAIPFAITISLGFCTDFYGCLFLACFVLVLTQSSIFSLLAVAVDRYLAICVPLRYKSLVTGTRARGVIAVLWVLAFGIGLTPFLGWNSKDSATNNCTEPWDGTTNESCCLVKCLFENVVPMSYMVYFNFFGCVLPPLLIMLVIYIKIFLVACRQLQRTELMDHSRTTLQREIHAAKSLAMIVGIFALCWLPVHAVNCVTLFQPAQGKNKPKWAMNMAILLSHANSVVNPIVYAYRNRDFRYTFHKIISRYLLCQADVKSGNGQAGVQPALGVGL
The method, then: (§1) All FRET binding experiments were conducted at room temperature in white 384-well plates, in assay binding buffer containing 1× LabMed (Cisbio, France), 100 μg/mL saponin, 1% DMSO and 0.02% pluronic acid. Binding of the fluorescently labelled Adenosine receptor antagonist XAC (CA200645, FRET acceptor) to terbium-labelled A1, A2a, A2b and A3 adenosine receptors (FRET donors) was detected by time-resolved FRET due to the close proximity of the donor and acceptor in a binding event. To investigate the ability of unlabelled test compounds to bind to Adenosine A1, A2a, A2b and A3 receptors, dose response curves were constructed that determined the ability of a range of concentrations to inhibit the binding of 30 nM CA200645 to the A2b receptor and 100 nM CA200645 to the A1, A2a, and A3 receptor.Serial dilution (1:3 dilutions) of test compounds in neat DMSO and transfer of a 400 nL sample of test compound into the assay plate was carried out using the Mosquito (TTP Labtech, UK). The compound samples were incubated for 2 hours at room temperature with a fixed concentration of CA200645 defined for each receptor (see above) and CHO cell membranes containing the human Adenosine A1 (0.5 μg/well), A2a (0.3 μg/well), A2b (1 μg/well) or A3 (1 μg/well) receptor in 40 μL of assay buffer. Total and non-specific binding of CA200645 was determined in the absence and presence of 10 μM XAC, respectively. Following 2 hours incubation, the level of CA200645 binding was detected on a Pherastar FSX (BMG Labtech, Germany) using standard TR-FRET settings.

In another assay the target is T2, Adenosine receptor A1 (Homo sapiens, UniProt P30542).
T2 sequence (P30542 whole entry): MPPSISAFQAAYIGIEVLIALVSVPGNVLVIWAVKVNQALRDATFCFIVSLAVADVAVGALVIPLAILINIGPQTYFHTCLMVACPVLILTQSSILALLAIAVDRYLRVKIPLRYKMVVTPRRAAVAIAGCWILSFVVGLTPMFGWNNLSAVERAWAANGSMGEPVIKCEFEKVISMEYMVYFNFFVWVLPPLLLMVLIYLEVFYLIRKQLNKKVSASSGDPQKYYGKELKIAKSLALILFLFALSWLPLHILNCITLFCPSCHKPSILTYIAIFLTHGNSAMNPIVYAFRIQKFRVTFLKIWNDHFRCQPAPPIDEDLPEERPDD
The method, then: as §1

The target of the next assay is Adenosine receptor A2a (Homo sapiens, UniProt P29274). The method, then:
as §1

The next assay concerns the target T3, Adenosine receptor A3 (Homo sapiens, UniProt P0DMS8).
T3 sequence (P0DMS8 whole entry): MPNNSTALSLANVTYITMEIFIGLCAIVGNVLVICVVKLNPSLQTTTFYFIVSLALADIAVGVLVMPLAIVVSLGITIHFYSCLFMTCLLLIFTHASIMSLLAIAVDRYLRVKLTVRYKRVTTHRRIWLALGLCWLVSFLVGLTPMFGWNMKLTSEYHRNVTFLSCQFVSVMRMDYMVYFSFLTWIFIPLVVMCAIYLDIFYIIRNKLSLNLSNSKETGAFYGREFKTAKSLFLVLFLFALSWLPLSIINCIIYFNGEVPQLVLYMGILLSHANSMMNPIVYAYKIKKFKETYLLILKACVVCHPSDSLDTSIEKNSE
The method, then: as §1

Sequence of Adenosine receptor A2a (P29274 whole entry): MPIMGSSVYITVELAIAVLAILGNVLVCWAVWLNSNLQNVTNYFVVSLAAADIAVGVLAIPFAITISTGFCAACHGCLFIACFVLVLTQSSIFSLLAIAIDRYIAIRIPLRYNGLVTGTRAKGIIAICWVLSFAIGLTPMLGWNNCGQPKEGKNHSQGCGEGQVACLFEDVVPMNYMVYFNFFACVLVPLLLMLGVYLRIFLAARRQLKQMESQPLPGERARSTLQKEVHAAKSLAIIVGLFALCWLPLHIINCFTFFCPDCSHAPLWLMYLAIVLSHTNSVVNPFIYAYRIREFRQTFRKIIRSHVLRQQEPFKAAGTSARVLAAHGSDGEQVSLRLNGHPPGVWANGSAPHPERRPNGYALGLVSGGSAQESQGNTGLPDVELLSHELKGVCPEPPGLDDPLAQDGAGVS

Turning to `Cc1ccnc2ccc(-c3sc(NC(=O)N4CC5(COC5)C4)nc3-c3cccc(C#N)c3)cc12` [US20250243194, Example 11], the Ki at Adenosine receptor A2b was determined as 0.5 nM; on Adenosine receptor A1, 0.4 nM; at Adenosine receptor A2a, 0.04 nM.

On to `Cc1ncnc2ccc(-c3sc(NC(=O)N4CCN(C)CC4)nc3-c3cccc(C#N)c3)cc12` [US20250243194, Example 7.22], for which the inhibition constant Ki at Adenosine receptor A2b is 3 nM; at Adenosine receptor A1 it was 20 nM; at Adenosine receptor A2a, 0.42 nM.

`Cn1cc(-c2sc(NC(=O)N3CC4(COC4)C3)nc2-c2cccc(C#N)c2)c2cccnc21` [US20250243194, Example 16]: the Ki stood at 9.8 nM on Adenosine receptor A2b, 122 nM on Adenosine receptor A1, 2130 nM at Adenosine receptor A3 and 5.17 nM on Adenosine receptor A2a.

For `Cc1ncnc2ccc(-c3sc(NC(=O)N4CCC(N(C)C)CC4)nc3-c3cccc(C#N)c3)cc12` [US20250243194, Example 7.6], the figures for the inhibitory constant (Ki) at Adenosine receptor A2b, at Adenosine receptor A1 and at Adenosine receptor A2a were 2.5 nM, 62 nM and 0.55 nM, respectively.

In the case of `Cc1ncnc2ccc(-c3sc(NC(=O)N4C[C@@H]5OCCN(C)[C@@H]5C4)nc3-c3cccc(C#N)c3)cc12` [US20250243194, Example 7.20], the inhibition constant (Ki) at Adenosine receptor A2b stood at 1.4 nM; on Adenosine receptor A1 it was 57 nM; on Adenosine receptor A2a it was 0.2 nM.

With `Cc1ncnc2ccc(-c3sc(NC(=O)N4CCNCC4)nc3-c3cccc(C#N)c3)cc12` [US20250243194, Example 7.21], the inhibition constant (Ki) at Adenosine receptor A2b amounted to 1.6 nM; at Adenosine receptor A1, 9 nM; at Adenosine receptor A2a, 0.3 nM.

Consider `COc1ncnc2ccc(-c3sc(NC(=O)N4CC5(COC5)C4)nc3-c3cccc(C#N)c3)cc12` [US20250243194, Example 12], for which the results for the inhibition constant (Ki) on Adenosine receptor A2b, on Adenosine receptor A1 and at Adenosine receptor A2a were 0.8 nM, 0.2 nM and 0.17 nM, respectively.
